In ChEMBL document CHEMBL1133491, “Synthesis and binding to plant lectins of sulfur-containing analogues of betaGal1,3 alphaGalNAc (T-antigen)” (Bioorg Med Chem Lett, 2000) one finds IC50 data, which are given here for two compounds.

The nature of test [1]: Binding affinity to Agglutinin was evaluated. On the set-up: species or system Arachis hypogaea.
For test [2], the system named is Erythrina corallodendron. As to the kind of experiment: Binding affinity to Erythrina corallodendron lectin was evaluated. The test is classed as functional.
Test [3] is described as follows: Binding affinity to soybean agglutinin was evaluated. On the set-up: species or system Glycine max.

For the compound `CC(=O)N[C@@H]1[C@H](Oc2cccc3ccccc23)O[C@@H](CO)[C@@H](O)[C@@H]1O`, the values for the 50% inhibitory concentration (IC50) in test [1], in test [2] and in test [3] were 1950 µM, 1510 µM and 1290 µM, respectively.

Turning to `CC(=O)N[C@@H]1[C@H](Oc2ccccc2)O[C@@H](CO)[C@@H](O)[C@@H]1O`, the values for the half-maximal inhibitory concentration (IC50) in test [1], in test [2] and in test [3] were 2510 µM, 1150 µM and 1720 µM, respectively.

By IC50 is commonly meant the concentration needed to halve the response being measured. Low values mean inhibition by little substance, high ones a need for much substance.
